Assay results taken from patent US7332476B2, “Pyridyl substituted ketolide antibiotics” (Novartis AG, priority 2003, dated 2008).
≈ marks a conversion by molar mass, not a printed value.

Key:
Assay in all cases: MIC, broth microdilution (NCCLS)
Format in all cases: cell-based
[1] = tested on: Streptococcus pneumoniae Stpn_280-962; settings: Table 10, Strain ID O (Table 8): Streptococcus pneumoniae Stpn_280-962
Procedure, shortened: (§1)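 Broth microdilution per NCCLS in cation-adjusted Mueller-Hinton broth, with 2-5% lysed horse blood added for S. pneumoniae. Inoculum 3×10^5–7×10^5 CFU/ml, 2-fold drug dilutions, 18-24 h at 35° C; S. pneumoniae under 5-10% CO2, others ambient air. MIC = lowest concentration preventing visible growth.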

[2] = tested on: Streptococcus pneumoniae Stpn_Mef 5654; settings: Table 10, Strain ID P (Table 8): Streptococcus pneumoniae Stpn_Mef 5654; in µg/mL (unit assumed)
Procedure, shortened: as §1

[3] = tested on: Staphylococcus aureus Stau_33591; settings: Table 10, Strain ID B (Table 8): Staphylococcus aureus Stau_33591; unit assumed
Protocol: (§2) Strains. The bacterial isolates listed in Table 8 were cultivated from −70° C. frozen stocks by two consecutive overnight passages (P1, P2) at 35° C. on 5% blood agar (Remel, Lenexa, Kans.). Chocolate agar (Remel) is used for Haemophilus influenzae. H. influenzae and Streptococcus pneumoniae are incubated in 5-10% CO2
(§3) Drug Stock Preparation. To determine the amount of solvent to be used to give the desired final concentration, the formula “weight obtained in mg/final concentration in mg/ml” will be used. It will give the amount of solvent in ml needed to be added to give the desired concentration. For example, if 2.5 mg/ml is the desired concentration and the weight of compound is 13.7 mg, then the amount of solvent to be added is […]. Methanol is used as the solvent to dissolve the test compounds. Further dilution of stock is done in sterile, deionized water. Drug stocks are kept frozen at −70° C., protected from light.
(§4) Susceptibility Testing. MICs are determined by the broth microdilution method in accordance with the NCCLS guidelines. In brief, organism suspensions are adjusted to a 0.5 McFarland standard to yield a final inoculum between 3×10^5 and 7×10^5 CFU/ml. Drug dilutions and inocula are made in sterile, cation adjusted Mueller-Hinton Broth (CAMHB) (Remel) for all but S. pneumoniae [CAMHB with 2-5% lysed horse blood (Remel)] and H. influenzae [Haemophilus Test Medium (Remel)]. An inoculum volume of 100 μl is added to wells containing 100 μl of broth with 2-fold serial dilutions of drug. All inoculated microdilution trays are incubated in ambient air at 35° C. for 18-24 hours, except for S. pneumoniae, and H. influenzae (both at 5-10% CO2).
(§5) Following appropriate incubation, the MIC is determined and the MIC is defined as the lowest concentration of the drug that prevented visible growth. […] Antibacterial activity of representative compounds of the invention were compared against telitromycin.

[4] = tested on: Haemophilus influenzae Hain_960730503-3; settings: Table 10, Strain ID I (Table 8): Haemophilus influenzae Hain_960730503-3; in µg/mL (unit assumed)
Protocol: as §2, §3, §4, §5

[5] = tested on: Haemophilus influenzae Hain_960820544-3; settings: Table 10, Strain ID J (Table 8): Haemophilus influenzae Hain_960820544-3; in µg/mL (unit assumed)
Protocol: as §2, §3, §4, §5

[6] = tested on: Enterococcus faecalis Enfa_bc 11148-2; settings: Table 10, Strain ID F (Table 8): Enterococcus faecalis Enfa_bc 11148-2; in µg/mL (unit assumed)
Protocol: as §2, §3, §4, §5

[7] = tested on: Haemophilus influenzae Hain_953460299-3; settings: Table 10, Strain ID K (Table 8): Haemophilus influenzae Hain_953460299-3; in µg/mL (unit assumed)
Protocol: as §2, §3, §4, §5

[8] = tested on: Haemophilus influenzae Hain_2762; settings: Table 10, Strain ID L (Table 8): Haemophilus influenzae Hain_2762; in µg/mL (unit assumed)
Protocol: as §2, §3, §4, §5

[9] = tested on: Enterococcus faecalis Enfa_29212; settings: Table 10, Strain ID E (Table 8): Enterococcus faecalis Enfa_29212; in µg/mL (unit assumed)
Procedure, shortened: as §1

[10] = tested on: Staphylococcus epidermidis Step_f50654; settings: Table 10, Strain ID D (Table 8): Staphylococcus epidermidis Step_f50654; in µg/mL (unit assumed)
Procedure, shortened: as §1

[11] = tested on: Haemophilus influenzae Hain_49247; settings: Table 10, Strain ID H (Table 8): Haemophilus influenzae Hain_49247; unit assumed
[12] = tested on: Streptococcus pneumoniae Stpn_Mef S 3427; settings: Table 10, Strain ID Q (Table 8): Streptococcus pneumoniae Stpn_Mef S 3427; in µg/mL (unit assumed)
Procedure, shortened: as §1

[13] = tested on: Staphylococcus epidermidis Step_14990; settings: Table 10, Strain ID C (Table 8): Staphylococcus epidermidis Step_14990; in µg/mL (unit assumed)
Procedure, shortened: as §1

[14] = tested on: Staphylococcus aureus Stau_29213; settings: Table 10, Strain ID A (Table 8): Staphylococcus aureus Stau_29213; in µg/mL (unit assumed)
Procedure, shortened: as §1

[15] = tested on: Streptococcus pneumoniae Stpn_Erm S 4297; settings: Table 10, Strain ID R (Table 8): Streptococcus pneumoniae Stpn_Erm S 4297
Procedure, shortened: as §1

[16] = tested on: Streptococcus pyogenes Stpy_8668; settings: Table 10, Strain ID G (Table 8): Streptococcus pyogenes Stpy_8668
Procedure, shortened: as §1

[17] = tested on: Streptococcus pneumoniae Stpn_297-749; settings: Table 10, Strain ID N (Table 8): Streptococcus pneumoniae Stpn_297-749
Procedure, shortened: as §1

[18] = tested on: Streptococcus pneumoniae Stpn_49619; settings: Table 10, Strain ID M (Table 8): Streptococcus pneumoniae Stpn_49619
Procedure, shortened: as §1

SMILES	MIC [1]	MIC [2]	MIC [3] [mg/L]	MIC [4]	MIC [5]	MIC [6]	MIC [7]	MIC [8]	MIC [9]	MIC [10]	MIC [11] [mg/L]	MIC [12]	MIC [13]	MIC [14]	MIC ([15]; unit assumed) [mg/L]	MIC [16]	MIC [17]	MIC [18]	MIC [15]	MIC ([16]; unit assumed) [mg/L]
CC[C@H]1OC(=O)[C@H](C)C(=O)[C@H](C)[C@@H](OC2O[C@H](C)C[C@H](N(C)C)[C@H]2O)[C@@](C)(OC)C[C@@H](C)C(=O)[C@H](C)[C@H]2N(CCCCn3cnc(-c4ccc(C)nc4)c3)C(=O)O[C@]12CC (stereo partly drawn) [XIII]	=0.05	0.78	> 50	6.25	6.25	3.13	6.25	1.56	0.2	0.4	6.25 (≈ 7.44 µM)	0.2	0.2	0.4	0.2 (≈ 0.238 µM)	=0.05	=0.05	=0.05	–	–
C=C[C@]12OC(=O)N(CCCCn3cnc(-c4ccc(F)nc4)c3)[C@@H]1[C@@H](C)C(=O)[C@H](C)C[C@](C)(OC)[C@H](OC1O[C@H](C)C[C@H](N(C)C)[C@H]1O)[C@@H](C)C(=O)[C@@H](C)C(=O)O[C@@H]2CC (stereo partly drawn) [XIX]	=0.05	0.4	> 50	12.5	6.25	0.4	6.25	1.56	0.1	0.1	3.13 (≈ 3.72 µM)	0.1	0.1	0.1	–	=0.05	=0.05	=0.05	=0.05	–
CC[C@H]1OC(=O)[C@H](C)C(=O)[C@H](C)[C@@H](OC2O[C@H](C)C[C@H](N(C)C)[C@H]2O)[C@@](C)(OC)C[C@@H](C)C(=O)[C@H](C)[C@H]2N(CCCCn3cnc(-c4ccc(OC)nc4)c3)C(=O)O[C@]12CC (stereo partly drawn) [XVII]	=0.05	0.78	> 50	6.25	12.5	3.13	12.5	1.56	0.1	0.2	6.25 (≈ 7.3 µM)	0.2	0.4	0.2	0.2 (≈ 0.234 µM)	=0.05	=0.05	=0.05	–	–
CC[C@H]1OC(=O)[C@H](C)C(=O)[C@H](C)[C@@H](OC2O[C@H](C)C[C@H](N(C)C)[C@H]2O)[C@@](C)(OC)C[C@@H](C)C(=O)[C@H](C)[C@H]2N(CCCCn3cnc(-c4ccc(F)nc4)c3)C(=O)O[C@]12CC (stereo partly drawn) [XV]	=0.05	0.4	> 50	6.25	6.25	0.78	3.13	0.78	0.1	0.2	3.13 (≈ 3.71 µM)	0.1	0.2	0.4	0.1 (≈ 0.118 µM)	=0.05	=0.05	=0.05	–	–
C=C[C@]12OC(=O)N(CCCCn3cnc(-c4ccc(OCC)nc4)c3)[C@@H]1[C@@H](C)C(=O)[C@H](C)C[C@](C)(OC)[C@H](OC1O[C@H](C)C[C@H](N(C)C)[C@H]1O)[C@@H](C)C(=O)[C@@H](C)C(=O)O[C@@H]2CC (stereo partly drawn) [XXII]	=0.05	0.78	> 50	6.25	3.13	25	12.5	1.56	0.2	0.4	6.25 (≈ 7.2 µM)	0.78	0.4	0.4	1.56 (≈ 1.8 µM)	–	=0.05	=0.05	–	0.1 (≈ 0.115 µM)
C=C[C@]12OC(=O)N(CCCCn3cc(-c4ccc(OC)nc4)nc3C)[C@@H]1[C@@H](C)C(=O)[C@H](C)C[C@](C)(OC)[C@H](OC1O[C@H](C)C[C@H](N(C)C)[C@H]1O)[C@@H](C)C(=O)[C@@H](C)C(=O)O[C@@H]2CC (stereo partly drawn) [XXVII]	=0.05	1.56	> 50	12.5	6.25	6.25	12.5	1.56	0.2	0.2	6.25 (≈ 7.2 µM)	0.2	0.2	0.2	–	–	=0.05	=0.05	–	0.1 (≈ 0.115 µM)
C=C[C@]12OC(=O)N(CCCCn3cnc(-c4ccc(OC)nc4)c3C)[C@@H]1[C@@H](C)C(=O)[C@H](C)C[C@](C)(OC)[C@H](OC1O[C@H](C)C[C@H](N(C)C)[C@H]1O)[C@@H](C)C(=O)[C@@H](C)C(=O)O[C@@H]2CC (stereo partly drawn) [XXVI]	=0.05	1.56	> 50	12.5	12.5	1.56	12.5	1.56	0.2	0.4	6.25 (≈ 7.2 µM)	0.2	0.1	0.2	–	–	=0.05	=0.05	–	0.1 (≈ 0.115 µM)
CC[C@H]1OC(=O)[C@H](C)C(=O)[C@H](C)[C@@H](OC2O[C@H](C)C[C@H](N(C)C)[C@H]2O)[C@@](C)(OC)C[C@@H](C)C(=O)[C@H](C)[C@@H]2[C@@H]1OC(=O)N2CCCCn1cnc(-c2ccc(C)nc2)c1 (stereo partly drawn) [XXV]	=0.05	1.56	> 50	6.25	6.25	3.13	6.25	1.56	0.1	0.2	3.13 (≈ 3.85 µM)	.04	0.2	0.2	–	=0.05	=0.05	=0.05	–	–
